Assay results taken from patent publication US6090829A, “Method for treating excessive aggression” (Eli Lilly and Company, priority 1998, dated 2000).

Tests used:
[1] = test system: D2 receptor subtype; test: pharmacological studies at the D2 receptor subtype
[2] = test system: m4 receptors; test: cAMP formation in CHO m4 cells treated with pertussis toxin; format: cell-based
Description: Muscarinic agonists stimulate the formation of cAMP up to 10 fold in CHO m4 cells treated with pertussisi toxin and the pharmacology is consistent with the mediation by m4 receptors. Eckols K. Soc. Neurosci Abstr., 21:2040 (1995).

[3] = target: 3H-oxotremorine-M binding (muscarinic receptors); test: 3H-oxotremorine-M binding inhibition; settings: radioligand 3H-oxotremorine-M; read-out: inhibition constant (Ki) for binding of 3H-oxotremorine-M

CCCCCCOc1nsnc1C1=CCCN(C)C1 [xanomeline, 3-(4-hexyloxy-1,2,5-thiadiazol-3-yl)-1,2,5,6-tetrahydro-1-methylpyridine]
activity at the D2 receptor subtype [1]: active | stimulation of the formation of cAMP [2]: efficaciously and potently stimulated the formation of cAMP | Ki [3]: 2 nM
